The subject of this assay is HCV 1b RLuc cells (dicistronic genotype 1b Con1 replicon). In words: Renilla luciferase (RLuc)-based HCV replicon reporter assay. The class given is cell-based, HCV genotype 1b. The conditions noted are these: Hepatitis C virus, 72 h, read-out: Activity (antiviral potency [EC50]). The method in brief: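 HCV 1b RLuc cells carrying a dicistronic genotype 1b Con1 replicon were treated with serially diluted compounds from 10 mM DMSO stocks. After 72 h, cells were lysed and Renilla luciferase activity measured. EC50 was obtained by non-linear regression.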

Read-outs that look alike come from different tables or passages of the source.

As a reminder, the EC50 is the concentration giving half of the maximal effect. As to `COC(=O)N[C@H](C(=O)N1CC2(C[C@H]1c1ncc(-c3ccc(-c4ccc(-c5cnc([C@@H]6CC7(CN6C(=O)[C@@H](NC(=O)OC)C(C)C)OCCO7)[nH]5)cc4)cc3)[nH]1)OCCO2)C(C)C`, the EC50 (HCV 1b RLuc replicon, 72 hours) was determined as 0.105 nM. Same read-out and setting: to `COC(=O)N[C@H](C(=O)N1CCC[C@H]1c1ncc(-c2ccc3c(c2)Sc2cc(-c4cnc([C@@H]5CCCN5C(=O)[C@@H](NC(=O)OC)C(C)C)[nH]4)ccc2S3)[nH]1)C(C)C` belongs 0.349 nM; to `COC(=O)N[C@H](C(=O)N1CCC[C@H]1c1ncc(-c2ccc3cc(C#Cc4ccc5nc([C@@H]6[C@H]7CC[C@H](C7)N6C(=O)[C@@H](NC(=O)OC)C(C)C)[nH]c5c4)ccc3c2)[nH]1)C(C)C`, 0.0195 nM; to `COC(=O)N[C@H](C(=O)NC1(c2ncc(-c3ccc(-c4ccc(-c5cnc([C@@H]6CCCN6C(=O)[C@@H](NC(=O)OC)C(C)C)[nH]5)cc4)cc3)[nH]2)CC1)C(C)C`, 0.0865 nM.

Turning to `COCC[C@H](NC(=O)OC)C(=O)N1[C@@H]2CC[C@@H](C2)[C@H]1c1ncc(-c2ccc(-c3ccc4cc(-c5cnc([C@@H]6CC7(CC7)CN6C(=O)[C@@H](NC(=O)OC)C(C)C)[nH]5)ccc4c3)cc2)[nH]1`, the half-maximal effective concentration (EC50) (HCV 1b RLuc replicon, 72 hours) came out at 0.0119 nM. Take `COC(=O)N[C@H](C(=O)N1CCC[C@H]1c1ncc(-c2ccc3cc(-c4ccc(-c5cnc([C@@H]6CCCN6C(=O)[C@@H](NC(=O)OC)C6CCOCC6)[nH]5)cc4)ccc3c2)[nH]1)C1CCCCC1`: the half-maximal effective concentration (EC50) (HCV 1b RLuc replicon, 72 hours) was 0.0116 nM.

`COC(=O)N[C@H](C(=O)N1CCC[C@H]1c1ncc(-c2ccc(-c3ccc(-c4cnc([C@@H]5CN(CC(F)(F)F)CN5C(=O)[C@@H](NC(=O)OC)C(C)C)[nH]4)cc3)cc2)[nH]1)C(C)C`: the EC50 (HCV 1b RLuc replicon, 72 hours) came to 0.0074 nM. Still for that read-out and setting: the value for `COC(=O)N[C@H](C(=O)N1CCC[C@H]1c1ncc(-c2ccc(C#Cc3ccc4nc([C@@H]5CCCN5C(=O)[C@@H](NC(=O)OC)C(C)C)[nH]c4c3)cc2)[nH]1)C(C)C` was 0.0111 nM. The same measure, in the same setting: to `COC(=O)N[C@H](C(=O)N1CCC[C@H]1c1ncc(-c2ccc3c(c2)C(C)(C)c2cc(-c4cnc([C@@H]5CCCN5C(=O)[C@@H](NC(=O)OC)C(C)C)[nH]4)ccc2-3)[nH]1)C(C)C` belongs 0.0102 nM; to `COC(=O)N[C@H](C(=O)N1CCC[C@H]1c1ncc(-c2cc3c(C)c4sc(-c5cnc([C@@H]6CCCN6C(=O)[C@@H](NC(=O)OC)C(C)C)[nH]5)cc4c(C)c3s2)[nH]1)C(C)C`, 0.0166 nM. The same measure, in the same setting: the value for `COC(=O)N[C@H](C(=O)N1CCC[C@H]1c1ncc(-c2ccc(-c3ccc(-c4cnc([C@@H]5CC6(CN5C(=O)[C@@H](NC(=O)OC)C(C)C)OCCO6)[nH]4)cc3)cc2)[nH]1)C(C)C` was 0.0555 nM; that for `COC(=O)N[C@H](C(=O)N1CCC[C@H]1c1ncc(-c2ccc3cc(-c4ccc(-c5cnc([C@@H]6CCCN6C(=O)[C@H](NC(=O)OC)c6ccccc6OC)[nH]5)cc4)ccc3c2)[nH]1)C(C)C` was 0.0073 nM. As for `COC(=O)N[C@H](C(=O)N1CCC[C@H]1c1ncc(-c2ccc(-c3cc4ccc(-c5cnc([C@@H]6CCCN6C(=O)[C@@H](NC(=O)OC)C(C)C)[nH]5)cc4s3)cc2)[nH]1)C(C)C`, the concentration giving a half-maximal response (EC50) (HCV 1b RLuc replicon, 72 hours) is 0.0093 nM. Turning to `COC(=O)N[C@@H](CCS(C)(=O)=O)C(=O)N1C[C@@H](C#N)C[C@H]1c1ncc(-c2ccc(-c3ccc4cc(-c5cnc([C@@H]6CC7(CC7)CN6C(=O)[C@@H](NC(=O)OC)C(C)C)[nH]5)ccc4c3)cc2)[nH]1`, the EC50 (HCV 1b RLuc replicon, 72 hours) worked out at 0.256 nM.

`COC(=O)N[C@H](C(=O)N1CC2(CC2)C[C@H]1c1ncc(-c2ccc3c(c2)C(F)(F)c2cc(-c4c[nH]c([C@@H]5CCCN5C(=O)[C@@H](NC(=O)OC)C5CCOCC5)n4)ccc2-3)[nH]1)C(C)C`: the EC50 (HCV 1b RLuc replicon, 72 hours) amounted to 0.0614 nM.

Take `COC(=O)N[C@H](C(=O)N1CC2(CC2)C[C@H]1c1nc(-c2ccc3cc(-c4ccc(-c5cnc([C@@H]6SCCN6C(=O)[C@@H](NC(=O)OC)C6CCOCC6)[nH]5)cc4)ccc3c2)c[nH]1)C(C)C`: for the setting “HCV 1b RLuc replicon, 72 hours”, the EC50 was 0.132 nM.

Take `COC(=O)N[C@H](C(=O)N1CCC[C@H]1C(=O)Nc1ccc(NC(=O)c2ccc(NC(=O)[C@@H]3CCCN3C(=O)[C@@H](NC(=O)OC)C(C)C)cc2)cc1)C(C)C`: the concentration giving a half-maximal response (EC50) turned out to be 37.8 nM. `COC(=O)N[C@H](C(=O)N1CCC[C@H]1c1ncc(-c2ccc(-c3ccc(-c4cnc([C@@H]5SCCN5C(=O)[C@@H](NC(=O)OC)C(C)C)[nH]4)cc3)cc2)[nH]1)C(C)C`: the EC50 (HCV 1b RLuc replicon, 72 hours) worked out at 0.0171 nM. The same measure, in the same setting: to `COC(=O)NC(C(=O)N1CC2(CC2)C[C@H]1c1ncc(-c2ccc3cc(-c4ccc(-c5cnc([C@@H]6[C@H]7CC[C@H](C7)N6C(=O)[C@@H](NC(=O)OC)C(C)C)[nH]5)cc4)ccc3c2)[nH]1)c1ccccc1` (some centres unmarked) belongs 0.0145 nM; to `COC(=O)N[C@H](C(=O)N1CCC[C@H]1c1ncc(-c2ccc3cc(-c4ccc(-c5cnc([C@@H]6C[C@@H](Cc7ccccc7)CN6C(=O)[C@@H](NC(=O)OC)C(C)C)[nH]5)cc4)ccc3c2)[nH]1)C(C)C`, 0.014 nM.

Consider `COC(=O)N[C@H](C(=O)N1CCC[C@H]1c1ncc(-c2ccc(-c3ccc(-c4cnc([C@H]5CC6(CCC6)ON5C(=O)[C@@H](NC(=O)OC)C(C)C)[nH]4)cc3)cc2)[nH]1)C(C)C`, for which the 50% effective concentration (EC50) (HCV 1b RLuc replicon, 72 hours) was 0.11 nM. On the same count and under the same terms, to `COC(=O)N[C@@H](C)C(=O)N1CCC[C@H]1c1ncc(-c2ccc3c(c2)sc2cc(-c4ccc5nc([C@@H]6[C@H]7CC[C@H](C7)N6C(=O)[C@H](C)NC(=O)OC)[nH]c5c4)ccc23)[nH]1` belongs 0.075 nM; to `COC[C@@H]1C[C@@H](c2ncc(-c3ccc(-c4ccc5cc(-c6cnc([C@@H]7CC8(CC8)CN7C(=O)[C@@H](NC(=O)OC)C(C)C)[nH]6)ccc5c4)cc3)[nH]2)N(C(=O)[C@@H](NC(=O)OC)C(C)C)C1`, 0.0092 nM; to `COC(=O)N[C@H](C(=O)N1CCC[C@H]1c1ncc(-c2ccc3c(c2)oc2cc(-c4cnc([C@@H]5CCCN5C(=O)[C@@H](NC(=O)OC)C(C)C)[nH]4)ccc23)[nH]1)C(C)C`, 0.0052 nM. On the same count and under the same terms, to `COC(=O)N[C@H](C(=O)N1CCC[C@H]1c1ncc(-c2ccc3c(c2)COCc2cc(-c4cnc([C@@H]5[C@H]6CC[C@H](C6)N5C(=O)[C@@H](NC(=O)OC)C(C)C)[nH]4)ccc2-3)[nH]1)C(C)C` belongs 0.0221 nM; to `COC(=O)NC(C(=O)N1CCC[C@H]1c1ncc(-c2ccc(-c3ccc(-c4cnc([C@@H]5CCCN5C(=O)[C@@H](NC(=O)OC)C(C)C)[nH]4)cc3)c3ccccc23)[nH]1)C(C)C` (some centres unmarked), 0.0067 nM; to `COC(=O)N[C@@H](C)C(=O)N1[C@@H]2CC[C@@H](C2)[C@H]1c1ncc(-c2ccc(-c3ccc4cc(-c5cnc([C@@H]6CC7(CC7)CN6C(=O)[C@@H](NC(=O)OC)C(C)C)[nH]5)ccc4c3)cc2)[nH]1`, 0.0156 nM. With `COC(=O)N[C@@H](CCSC)C(=O)N1CCC[C@H]1c1nc(-c2ccc3c(c2)C(F)(F)c2cc(-c4cnc([C@@H]5CC6(CC6)CN5C(=O)[C@@H](NC(=O)OC)C(C)C)[nH]4)ccc2-3)c[nH]1`, the EC50 (HCV 1b RLuc replicon, 72 hours) came to 0.0204 nM. Same read-out and setting: the value for `COC(=O)N[C@@H](CCOCC(F)(F)F)C(=O)N1CCC[C@H]1c1ncc(-c2ccc(-c3ccc(-c4cnc([C@@H]5CCCN5C(=O)[C@@H](NC(=O)OC)C(C)C)[nH]4)cc3)cc2)[nH]1` was 0.0273 nM; that for `COC(=O)N[C@H](C(=O)N1C[C@@H](C#N)C[C@H]1c1ncc(-c2ccc3c(c2)C(F)(F)c2cc(-c4ccc5nc([C@@H]6[C@H]7CC[C@H](C7)N6C(=O)[C@@H](NC(=O)OC)C(C)C)[nH]c5c4)ccc2-3)[nH]1)C(C)C` was 0.0059 nM. The same measure, in the same setting: the value for `COC(=O)N[C@H](C(=O)N1CC2(CC2)C[C@H]1c1ncc(-c2ccc3cc(-c4ccc(-c5cnc([C@@H]6[C@H]7CC[C@H](C7)N6C(=O)[C@@H](NC(=O)OC)C(C)C)[nH]5)cc4)ccc3c2)[nH]1)C(C)C` was 0.0067 nM; that for `COC(=O)N[C@H](C(=O)N1CCC[C@H]1c1ncc(-c2ccc3cc(-c4ccc5nc([C@@H]6CCCN6C(=O)[C@@H](NC(=O)OC)C(C)C)[nH]c5c4)ccc3c2)[nH]1)C(C)C` was 0.0067 nM; that for `CC[C@H](C)[C@H](NC(=O)OC)C(=O)N1C[C@@H](C#N)C[C@H]1c1ncc(-c2ccc3cc(-c4ccc(-c5cnc([C@@H]6CC7(CC7)CN6C(=O)[C@@H](NC(=O)OC)C(C)C)[nH]5)cc4)ccc3c2)[nH]1` was 0.01 nM. Still for that read-out and setting: the value for `COC(=O)N[C@H](C(=O)N1CC2(CC2)C[C@H]1c1ncc(-c2ccc(-c3ccc(-c4ccc5nc([C@@H]6[C@H]7CC[C@H](C7)N6C(=O)[C@@H](NC(=O)OC)C(C)C)[nH]c5c4)cc3)cc2)[nH]1)C(C)C` was 0.0058 nM. Turning to `COC(=O)N[C@@H](C)C(=O)N1[C@@H](c2ccccc2)CC[C@H]1c1ncc(-c2ccc(-c3ccc4cc(-c5cnc([C@@H]6CCCN6C(=O)[C@@H](NC(=O)OC)C(C)C)[nH]5)ccc4c3)cc2)[nH]1`, the EC50 (HCV 1b RLuc replicon, 72 hours) was determined as 0.788 nM. On the same count and under the same terms, the value for `COC(=O)N[C@@H](C(=O)N1CCC[C@@H]1c1ncc(-c2ccc3c(c2)S(=O)(=O)c2cc(-c4cnc([C@H]5CCCN5C(=O)[C@H](NC(=O)OC)C(C)C)[nH]4)ccc2-3)[nH]1)C(C)C` was 0.0535 nM. The same measure, in the same setting: the value for `COC(=O)N[C@H](C(=O)N1CCC[C@H]1c1ncc(-c2ccc3c(c2)oc2cc(-c4cnc([C@@H]5[C@H]6CC[C@H](C6)N5C(=O)[C@@H](NC(=O)OC)C(C)C)[nH]4)ccc23)[nH]1)C(C)C` was 0.0082 nM. The same measure, in the same setting: to `COC(=O)N[C@H](C(=O)N1CCC[C@H]1c1ncc(-c2ccc(-c3ccc(-c4cnc(CN5CCC[C@H](N)C5=O)[nH]4)cc3)cc2)[nH]1)C(C)C` belongs 4.8 nM. With `COC(=O)N[C@H](C(=O)N1CCC[C@H]1c1ncc(-c2ccc(-c3ccc4cc(-c5cnc([C@@H]6CCCN6C(=O)[C@@H](NC(=O)OC)C(C)C)[nH]5)ccc4c3)cc2)[nH]1)c1ccc(F)cc1`, the EC50 (HCV 1b RLuc replicon, 72 hours) is 0.043 nM. Same read-out and setting: the value for `COC(=O)N[C@H](C(=O)N1CCC[C@H]1c1ncc(C#Cc2ccc(-c3ccc4nc([C@@H]5CCCN5C(=O)[C@@H](NC(=O)OC)C(C)C)[nH]c4c3)cc2)[nH]1)C(C)C` was 0.0168 nM; that for `COC(=O)N[C@H](C(=O)N1CCC[C@H]1c1ncc(-c2ccc3cc(-c4ccc(-c5cnc([C@@H]6CCCN6C(=O)[C@H](O)c6ccccc6)[nH]5)cc4)ccc3c2)[nH]1)C(C)C` was 0.0097 nM.

These data come from patent US8822430B2 (Gilead Sciences, Inc., priority 2009, dated 2014).
